Reference: article PMC6542369 (Bioorganic & medicinal chemistry letters, 2017)

Key:
hM4 = biological target: T1, hM4 (Homo sapiens, UniProt P08173); format: cell-based; details: for loss of potency (fold): hM4 potency relative to 10a; for hM4 activity: replacement of the fluorine with other halogens
T1 sequence (P08173 1-479): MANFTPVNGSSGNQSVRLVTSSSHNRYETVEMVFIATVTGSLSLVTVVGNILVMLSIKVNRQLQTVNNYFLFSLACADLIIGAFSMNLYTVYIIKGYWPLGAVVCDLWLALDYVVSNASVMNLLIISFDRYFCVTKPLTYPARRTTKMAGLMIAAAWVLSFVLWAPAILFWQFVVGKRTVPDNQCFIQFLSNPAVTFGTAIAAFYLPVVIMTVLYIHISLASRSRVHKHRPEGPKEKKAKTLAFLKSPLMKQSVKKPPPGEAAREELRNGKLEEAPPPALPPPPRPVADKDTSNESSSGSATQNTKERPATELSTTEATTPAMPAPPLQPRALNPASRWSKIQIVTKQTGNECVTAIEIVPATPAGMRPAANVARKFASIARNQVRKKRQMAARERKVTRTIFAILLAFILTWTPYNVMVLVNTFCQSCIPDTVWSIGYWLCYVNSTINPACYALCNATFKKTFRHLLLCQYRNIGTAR

hM2 = biological target: T2, hM2 (Homo sapiens, UniProt P08172); test: mAChR subtype selectivity / counter screen, hM2; format: cell-based
T2 sequence (P08172 1-466): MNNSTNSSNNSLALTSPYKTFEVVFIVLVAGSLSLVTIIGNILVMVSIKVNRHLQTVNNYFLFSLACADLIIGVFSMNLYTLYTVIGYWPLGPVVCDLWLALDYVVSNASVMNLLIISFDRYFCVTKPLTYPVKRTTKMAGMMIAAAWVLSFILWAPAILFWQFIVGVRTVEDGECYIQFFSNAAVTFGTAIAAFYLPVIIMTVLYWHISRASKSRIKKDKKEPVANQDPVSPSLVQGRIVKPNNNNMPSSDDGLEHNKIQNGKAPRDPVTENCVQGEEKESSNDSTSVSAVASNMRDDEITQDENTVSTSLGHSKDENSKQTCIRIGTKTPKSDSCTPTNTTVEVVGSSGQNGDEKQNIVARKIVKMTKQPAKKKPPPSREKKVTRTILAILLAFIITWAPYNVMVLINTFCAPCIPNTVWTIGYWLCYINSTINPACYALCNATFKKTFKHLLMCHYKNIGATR

| Structure (SMILES) | loss of potency (fold) (hM4) | also measured |
| --- | --- | --- |
| COc1cccc(C2CN(C(=O)c3sc4nnc(C)c(C)c4c3N)C2)c1 [Compound 10h] | > 100 fold | – |
| COc1ccc(C2CN(C(=O)c3sc4nnc(C)c(C)c4c3N)C2)cc1 [Compound 10i] | ~ 3.5 fold | – |
| Cc1nnc2sc(C(=O)N3CC(c4ccc(F)cc4)C3)c(N)c2c1C [Compound 10l] | – | activity at hM2 (hM2): inactive |
| Cc1nnc2sc(C(=O)N3CC(c4ccc(Cl)cc4)C3)c(N)c2c1C [Compound 10m] | – | hM4 activity (hM4): complete loss of hM4 activity |
| Cc1nnc2sc(C(=O)N3CC(c4ccc(Br)cc4)C3)c(N)c2c1C [Compound 10n] | – | hM4 activity (hM4): complete loss of hM4 activity |

More lines, main results first:

| loss of potency (fold) (hM4) | Structure (SMILES) | also measured |
| --- | --- | --- |
| ~ 10 fold | Cc1nnc2sc(C(=O)N3CC(O)(c4ccccc4)C3)c(N)c2c1C [Compound 11a] | – |
| ~ 6 fold | COC1(c2cccc(F)c2)CN(C(=O)c2sc3nnc(C)c(C)c3c2N)C1 [Compound 11b] | – |
